Data reported in patent publication US20210238184A1, “THERAPEUTIC COMPOUNDS” (Genentech, Inc., priority 2018, published 2021).

Experiments:
[1] = molecular target: TEAD2 YAP50-100 (Homo sapiens, UniProt Q15562); assay: TEAD2:YAP50-100 protein-protein interaction HTRF (TR-FRET) assay; conditions: His-tagged TEAD YAP binding domain (aa 217-447), biotinylated YAP peptide aa 50-100; 30 min pre-incubation, 60 min at room temperature; read-out: TEAD2 YAP50-100 HTRF WuXi EC50
Description: (§1) Purified His-tagged TEAD protein (YAP Binding Domain, amino acids 217-447) is pre-incubated with Europium labelled anti-His antibody tracer (Perkin Elmer Cat #AD0110). Small molecule Inhibitors are then incubated with the TEAD-Eu protein complex for 30 minutes to allow for binding to TEAD protein. Biotinylated YAP peptide (AA's 50-100) that has been pre-incubated with streptavidin x1665 acceptor (CIS-Bio Cat #610SAXAC) is added to the compound-TEAD mix. The TEAD-YAP-inhibitor mixture is then incubated for 60 minutes at room temperature. All reactions are carried out in a polystyrene plate. After 60 minutes, the plate is read on a plate reader using TR-FRET mode with wavelengths of 665 nm/615 nm. If YAP binds to TEAD as expected, a TR-FRET signal results from the proximity of YAP and TEAD after binding. If an inhibitor such as peptide 17 (Selleckchem Cat #S8164) interferes with YAP-TEAD binding, the disruption of the YAP:TEAD interaction results in a decrease in TR-FRET signal. The potency of compounds as YAP:TEAD protein-protein interaction (PPi) inhibitors is determined by an IC50 or EC50 value generated using a non-linear four parameter curve fit.

[2] = molecular target: TEAD3 YAP50-100 (Homo sapiens, UniProt Q99594); assay: TEAD3:YAP50-100 protein-protein interaction HTRF (TR-FRET) assay; conditions: His-tagged TEAD YAP binding domain (aa 217-447), biotinylated YAP peptide aa 50-100; 30 min pre-incubation, 60 min at room temperature; read-out: TEAD3 YAP50-100 HTRF WuXi EC50
Description: as §1

TEAD3 YAP50-100, sequence (Q99594 216-435 limits assumed): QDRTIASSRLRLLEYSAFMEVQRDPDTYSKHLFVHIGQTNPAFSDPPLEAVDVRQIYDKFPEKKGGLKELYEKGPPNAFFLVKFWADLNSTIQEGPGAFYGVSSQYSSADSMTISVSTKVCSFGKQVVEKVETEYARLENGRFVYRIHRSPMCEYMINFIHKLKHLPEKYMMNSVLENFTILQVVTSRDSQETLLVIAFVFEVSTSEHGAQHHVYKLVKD
TEAD2 YAP50-100, sequence (Q15562 217-447): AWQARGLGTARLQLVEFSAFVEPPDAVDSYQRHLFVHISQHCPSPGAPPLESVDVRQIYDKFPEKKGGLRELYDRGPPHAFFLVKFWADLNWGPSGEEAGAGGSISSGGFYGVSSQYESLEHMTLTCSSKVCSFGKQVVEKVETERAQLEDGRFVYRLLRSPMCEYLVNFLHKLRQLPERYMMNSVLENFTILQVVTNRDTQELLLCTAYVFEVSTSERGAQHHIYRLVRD

| Compound | EC50 [1] [nM] | EC50 [2] [nM] |
| --- | --- | --- |
| CC1CN(C(=O)c2cnn3c(=O)cc(-c4ccc(C5CCCCC5)cc4)[nH]c23)C1 [Example 11, 5-(4-Cyclohexylphenyl)-3-(3-methylazetidine-1-carbonyl)pyrazolo[1,5-a]pyrimidin-7(4H)-one] | 11 | 32 |
| O=C(c1cnn2c(=O)cc(-c3ccc(C4CCCCC4)cc3)[nH]c12)N1CC(F)(F)C1 [Example 12, 5-(4-Cyclohexylphenyl)-3-(3,3-difluoroazetidine-1-carbonyl)pyrazolo[1,5-a]pyrimidin-7(4H)-one] | 68 | 56 |
| CCOC(=O)c1cnn2c(=O)cc(-c3ccc(OC4CCCCC4)cc3)[nH]c12 [Example 13, Ethyl 5-(4-(Cyclohexyloxy)phenyl)-7-oxo-4,7-dihydropyrazolo[1,5-a]pyrimidine-3-carboxylate] | 793 | 66 |
| CCOC(=O)c1cnn2c(=O)cc(-c3ccc(Oc4ccccc4)cc3)[nH]c12 [Example 15, Ethyl 7-oxo-5-(4-phenoxyphenyl)-4,7-dihydropyrazolo[1,5-a]pyrimidine-3-carboxylate] | 836 | 532 |
| CN(C)C(=O)c1cnn2c(=O)cc(-c3ccc(Oc4ccccc4)cc3)[nH]c12 [Example 16, /VA-Dimethyl-7-oxo-5-(4-phenoxyphenyl)-4,7-dihydropyrazolo[1,5-a]pyrimidine-3-carboxamide] | 501 | 1110 |
| CCNC(=O)c1cnn2c(=O)cc(-c3ccc(Oc4ccccc4)cc3)[nH]c12 [Example 17, N-Ethyl-7-oxo-5-(4-phenoxyphenyl)-4,7-dihydropyrazolo[1,5-a]pyrimidine-3-carboxamide] | 55 | 5000 |
| CCOC(=O)c1cnn2c(=O)cc(-c3ccc(N4CCCCC4)cc3)[nH]c12 [Example 18, Ethyl 7-oxo-5-(4-(piperidin-1-yl)phenyl)-4,7-dihydropyrazolo[1,5-a]pyrimidine-3-carboxylate] | 7350 | 239 |
| O=C(NC1CC1)c1cnn2c(=O)cc(-c3ccc(C(F)(F)F)cc3)[nH]c12 [Example 27, N-Cyclopropyl-7-oxo-5-(4-(trifluoromethyl)phenyl)-4,7-dihydropyrazolo[1,5-a]pyrimidine-3-carboxamide] | 211 | 3510 |
| CCOC(=O)c1c(C)nn2c(=O)cc(-c3ccc(Oc4ccccc4)cc3)[nH]c12 [Example 28, Ethyl 2-methyl-7-oxo-5-(4-phenoxyphenyl)-4,7-dihydropyrazolo[1,5-a]pyrimidine-3-carboxylate] | 3570 | 393 |
| CCOC(=O)c1c(C(C)C)nn2c(=O)cc(-c3ccc(Oc4ccccc4)cc3)[nH]c12 [Example 29, Ethyl 2-isopropyl-7-oxo-5-(4-phenoxyphenyl)-4,7-dihydropyrazolo[1,5-a]pyrimidine-3-carboxylate] | 249 | 124 |
| CCOC(=O)c1cnn2c(=O)cc(-c3ccc(C4(c5ccccc5)CC4)cc3)[nH]c12 [Example 33, Ethyl 7-oxo-5-(4-(1-phenylcyclopropyl)phenyl)-4,7-dihydropyrazolo[1,5-a]pyrimidine-3-carboxylate] | 2190 | 765 |
| O=C(c1cnn2c(=O)cc(-c3ccc(-c4ccccc4)cc3)[nH]c12)N1CCC1 [Example 35, 5-([1,1′-Biphenyl]-4-yl)-3-(azetidine-1-carbonyl)pyrazolo[1,5-a]pyrimidin-7(4H)-one] | 1630 | 95 |
| CN(C)C(=O)c1cnn2c(=O)cc(-c3ccc(C4CCC4)cc3)[nH]c12 [Example 36, 5-(4-Cyclobutylphenyl)-N,N-dimethyl-7-oxo-4,7-dihydropyrazolo[1,5-a]pyrimidine-3-carboxamide] | 1870 | 28 |
| N#C[C@@H]1CCN(C(=O)c2cnn3c(=O)cc(-c4ccc(C5CCCCC5)cc4)[nH]c23)C1 [Example 37, (R)-1-(5-(4-Cyclohexylphenyl)-7-oxo-4,7-dihydropyrazolo[1,5-a]pyrimidine-3-carbonyl)pyrrolidine-3-carbonitrile] | 8.79 | 52.2 |
| O=C(c1cnn2c(=O)cc(-c3ccc(C4CCCCC4)cc3)[nH]c12)N1CC(C(F)F)C1 [Example 38, 5-(4-Cyclohexylphenyl)-3-(3-(difluoromethyl)azetidine-1-carbonyl)pyrazolo[1,5-a]pyrimidin-7(4H)-one] | 12 | 27 |
| O=C(c1cnn2c(=O)cc(-c3ccc(C4CCCCC4)cc3)[nH]c12)N1CC(C(F)(F)F)C1 [Example 39, 5-(4-Cyclohexylphenyl)-3-(3-(trifluoromethyl)azetidine-1-carbonyl)pyrazolo[1,5-a]pyrimidin-7(4H)-one] | 295 | 405 |
| CC1(F)CN(C(=O)c2cnn3c(=O)cc(-c4ccc(C5CCCCC5)cc4)[nH]c23)C1 [Example 40, 5-(4-Cyclohexylphenyl)-3-(3-fluoro-3-methylazetidine-1-carbonyl)pyrazolo[1,5-a]pyrimidin-7(4H)-one] | 12.5 | 18.5 |
| O=C(c1cnn2c(=O)cc(-c3ccc(C4CCCCC4)cc3)[nH]c12)N1CC(CF)C1 [Example 41, 5-(4-Cyclohexylphenyl)-3-(3-(fluoromethyl)azetidine-1-carbonyl)pyrazolo[1,5-a]pyrimidin-7(4H)-one] | 4.5 | 10 |
| O=C(c1cnn2c(=O)cc(-c3ccc(C4CCCCC4)cc3)[nH]c12)N1CCC(F)(F)C1 [Example 42, 5-(4-Cyclohexylphenyl)-3-(3,3-difluoropyrrolidine-1-carbonyl)pyrazolo[1,5-a]pyrimidin-7(4H)-one] | 14.5 | 39.5 |
| O=C(c1cnn2c(=O)cc(-c3ccc(C4CCCCC4)cc3)[nH]c12)N1CC[C@@H]1CF [Example 43, (R)-5-(4-cyclohexylphenyl)-3-(2-(fluoromethyl)azetidine-1-carbonyl)pyrazolo[1,5-a]pyrimidin-7(4H)-one] | 22.5 | 28 |
| N#CC1CN(C(=O)c2cnn3c(=O)cc(-c4ccc(C5CCCCC5)cc4)[nH]c23)C1 [Example 44] | 5.85 | 13 |

Other lines, results leading:

| EC50 [1] [nM] | EC50 [2] [nM] | Compound |
| --- | --- | --- |
| 747 | 666 | CCOC(=O)c1cnn2c(=O)cc(-c3ccc(Oc4ccccc4)c(C)c3)[nH]c12 [Example 14, Ethyl 5-(3-methyl-4-phenoxyphenyl)-7-oxo-4,7-dihydropyrazolo[1,5-a]pyrimidine-3-carboxylate] |
| 1780 | 834 | CCOC(=O)c1cnn2c(=O)cc(-c3ccc(C(F)(F)F)cc3)[nH]c12 [Example 23, Ethyl 7-oxo-5-(4-(trifluoromethyl)phenyl)-4,7-dihydropyrazolo[1,5-a]pyrimidine-3-carboxylate] |
| 80 | 4380 | CCNC(=O)c1cnn2c(=O)cc(-c3ccc(C(F)(F)F)cc3)[nH]c12 [Example 24, N-Ethyl-7-oxo-5-(4-(trifluoromethyl)phenyl)-4,7-dihydropyrazolo[1,5-a]pyrimidine-3-carboxamide] |
| 212 | 10400 | CNC(=O)c1cnn2c(=O)cc(-c3ccc(C(F)(F)F)cc3)[nH]c12 [Example 25, N-methyl-7-oxo-5-(4-(trifluoromethyl)phenyl)-4,7-dihydropyrazolo[1,5-a]pyrimidine-3-carboxamide] |
| 956 | 1410 | CCOC(=O)c1cnn2c(=O)cc(-c3ccc(C(F)(F)F)c(C)c3)[nH]c12 [Example 26, Ethyl 5-(3-methyl-4-(trifluoromethyl)phenyl)-7-oxo-4,7-dihydropyrazolo[1,5-a]pyrimidine-3-carboxylate] |
| 1620 | 95 | CCOC(=O)c1cnn2c(=O)cc(-c3ccc(C(C)(C)C)cc3)[nH]c12 [Example 30] |
| 4040 | 944 | CCOC(=O)c1cnn2c(=O)cc(-c3ccc(OC(C)C)cc3)[nH]c12 [Example 31, Ethyl 5-(4-isopropoxyphenyl)-7-oxo-4,7-dihydropyrazolo[1,5-a]pyrimidine-3-carboxylate] |
| 3700 | 175 | CCOC(=O)c1cnn2c(=O)cc(-c3ccc(N(C)CC4CC4)cc3)[nH]c12 [Example 32, Ethyl 5-(4-((cyclopropylmethyl)(methyl)amino)phenyl)-7-oxo-4,7-dihydro pyrazolo[1,5-a]pyrimidine-3-carboxylate] |
| 1030 | 41 | CCOC(=O)c1cnn2c(=O)cc(-c3ccc(-c4ccccc4)cc3)[nH]c12 [Example 34, Ethyl 5-([1,1^1-biphenyl]-4-yl)-7-oxo-4,7-dihydropyrazolo[1,5-a]pyrimidine-3-carboxylate] |
